Test results from patent US9242970B2 (ACTELION PHARMACEUTICALS LTD., priority 2010, dated 2016).

Legend:
[1] = test system: rat; details: cited from earlier work
[2] = test system: rat; details: rat model; cited from earlier work
[3] = test system: rat; details: cited from earlier work; remark: listed apart in the source
[4] = target: human orexin-1 receptor (Homo sapiens (Human), UniProt O43613); assay: In vitro assay: intracellular calcium measurements (FLIPR), antagonistic activity; format: cell-based; details: CHO cells, 3 nM orexin-A, compound incubation 120 min; marked values are geometric means of n = 2-6; read-out: IC50 OX1
[5] = target: human orexin-2 receptor (Homo sapiens (Human), UniProt O43614); assay: as above; format: cell-based; details: CHO cells, 3 nM orexin-A, compound incubation 120 min; marked values are geometric means of n = 2-6; read-out: IC50 OX2
human orexin-2 receptor, sequence (O43614 whole entry): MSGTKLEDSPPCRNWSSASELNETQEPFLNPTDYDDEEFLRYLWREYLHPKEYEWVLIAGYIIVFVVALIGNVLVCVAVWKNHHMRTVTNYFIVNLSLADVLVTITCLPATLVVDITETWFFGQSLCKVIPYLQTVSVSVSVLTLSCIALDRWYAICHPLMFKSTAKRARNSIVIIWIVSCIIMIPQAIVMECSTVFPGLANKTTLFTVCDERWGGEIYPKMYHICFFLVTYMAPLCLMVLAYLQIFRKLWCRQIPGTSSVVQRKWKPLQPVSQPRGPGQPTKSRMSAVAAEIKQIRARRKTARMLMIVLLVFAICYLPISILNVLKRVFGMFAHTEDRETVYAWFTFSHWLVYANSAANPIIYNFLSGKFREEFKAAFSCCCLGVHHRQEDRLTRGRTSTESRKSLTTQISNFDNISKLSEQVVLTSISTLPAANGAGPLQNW

human orexin-1 receptor, sequence (O43613 whole entry): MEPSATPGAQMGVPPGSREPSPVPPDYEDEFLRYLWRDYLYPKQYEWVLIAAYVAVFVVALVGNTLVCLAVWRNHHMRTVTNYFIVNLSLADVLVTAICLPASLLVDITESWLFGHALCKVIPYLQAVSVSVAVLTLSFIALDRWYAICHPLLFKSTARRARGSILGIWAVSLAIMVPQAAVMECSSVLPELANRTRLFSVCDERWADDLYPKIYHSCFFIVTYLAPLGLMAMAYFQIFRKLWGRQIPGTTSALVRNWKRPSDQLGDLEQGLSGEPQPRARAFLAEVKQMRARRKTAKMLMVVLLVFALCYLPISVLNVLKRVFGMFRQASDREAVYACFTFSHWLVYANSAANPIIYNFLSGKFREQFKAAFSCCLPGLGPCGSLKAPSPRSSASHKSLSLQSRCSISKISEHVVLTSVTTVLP

| Compound | IC50 [4] [nM] | IC50 [5] [nM] | other results |
| --- | --- | --- | --- |
| CNC(=O)[C@@H](c1ccccc1)N1CCc2cc(OC)c(OC)cc2[C@@H]1CCc1ccc(C(F)(F)F)cc1 [(2R)-2-{(1S)-6,7-dimethoxy-1-[2-(4-trifluoromethyl-phenyl)-ethyl]-3,4-dihydro-1H-isoquinolin-2-yl}-N-methyl-2-phenyl-acetamide] | – | – | activity in post-traumatic stress disorder model [1]: active; memory function [2]: enhance memory function; alertness (active wake and locomotion) [3]: decrease alertness; time spent in REM and NREM sleep [3]: dose-dependently increase the time spent in both REM and NREM sleep |
| COc1cccc(OC)c1C1CCCCC(=O)N1Cc1ccc(F)c(-c2ccccn2)c1 (centres unmarked) [Example 107, 7-(2,6-dimethoxyphenyl)-1-(4-fluoro-3-(pyridin-2-yl)benzyl)azepan-2-one] | 4 | 22 | – |
| COc1cncc(OC)c1C1CCCC(=O)N1Cc1cccc(-c2ccccc2)c1 (centres unmarked) [Example 68, 1-([1,1′-biphenyl]-3-ylmethyl)-6-(3,5-dimethoxypyridin-4-yl)piperidin-2-one] | 45 | 31 | – |
| rac-(3R*,5S*)-(3-chloro-4-(trifluoromethoxy)benzyl)-5-(2-ethoxy-6-fluorophenyl)-3-hydroxypyrrolidin-2-one [Example 429] | 1160 | 15 | – |
| COc1cccc(OC)c1C1CCC(=O)N1Cc1ccc(Oc2nc(C)cs2)cc1 (centres unmarked) [Example 292, 5-(2,6-dimethoxyphenyl)-1-(4-((4-methylthiazol-2-yl)oxy)benzyl)pyrrolidin-2-one] | 214 | 125 | – |
| COc1ncnc(OC)c1C1CCCC(=O)N1Cc1cccc(-c2csc(C)n2)c1 (centres unmarked) [Example 269, 6-(4,6-dimethoxypyrimidin-5-yl)-1-(3-(2-methylthiazol-4-yl)benzyl)piperidin-2-one] | 1030 | 619 | – |
| COc1cccc(OC)c1C1CCC(=O)N1Cc1cccc(N2CCCCC2)n1 (centres unmarked) [Example 130, 5-(2,6-dimethoxyphenyl)-1-((6-(piperidin-1-yl)pyridin-2-yl)methyl)pyrrolidin-2-one] | 636 | 690 | – |
| COc1cccc(OC)c1C1CCCCC(=O)N1Cc1ccc2ccccc2c1 (centres unmarked) [Example 75, 7-(2,6-dimethoxyphenyl)-1-(naphthalen-2-ylmethyl)azepan-2-one] | 12 | 32 | – |
| COc1cccc(OC)c1C1CCCC(=O)N1Cc1cc(-c2ccccn2)ccc1F (centres unmarked) [Example 40, 6-(2,6-dimethoxyphenyl)-1-(2-fluoro-5-(pyridin-2-yl)benzyl)piperidin-2-one] | 75 | 696 | – |
| COc1ccc(Cl)c(OC)c1C1CCCC(=O)N1Cc1cccc(-c2csc(C)n2)c1 (centres unmarked) [Example 281, 6-(3-chloro-2,6-dimethoxyphenyl)-1-(3-(2-methylthiazol-4-yl)benzyl)piperidin-2-one] | 42 | 115 | – |
| COc1cccc(F)c1C1CC(C)C(=O)N1Cc1csc(-c2ccc(C)cc2)n1 (centres unmarked) [Example 363, 5-(2-fluoro-6-methoxyphenyl)-3-methyl-1-((2-(p-tolyl)thiazol-4-yl)methyl)pyrrolidin-2-one] | 424 | 49 | – |
| COc1cccc(OC)c1C1CC(C)C(=O)N1Cc1ccnc(-c2ncc(C)s2)c1 (centres unmarked) [Example 351, 5-(2,6-dimethoxyphenyl)-3-methyl-1-((2-(5-methylthiazol-2-yl)pyridin-4-yl)methyl)pyrrolidin-2-one] | 16 | 51 | – |
| COc1cccc(OC)c1C1CC(C)C(=O)N1Cc1ccc(OC(F)F)c(Cl)c1 (centres unmarked) [Example 401, 1-(3-chloro-4-(difluoromethoxy)benzyl)-5-(2,6-dimethoxyphenyl)-3-methylpyrrolidin-2-one] | 164 | 155 | – |
| COc1cccc(OC)c1C1CCCC(=O)N1Cc1ccc2nccnc2c1 (centres unmarked) [Example 20, 6-(2,6-dimethoxyphenyl)-1-(quinoxalin-6-ylmethyl)piperidin-2-one] | 952 | 864 | – |
| COc1cccc(OC)c1C1CCC(=O)N1Cc1ccnc(-c2ccccc2)c1 (centres unmarked) [Example 120, 5-(2,6-dimethoxyphenyl)-1-((2-phenylpyridin-4-yl)methyl)pyrrolidin-2-one] | 64 | 121 | – |
| COc1ccccc1[C@@H]1C[C@H](Cl)C(=O)N1Cc1ccc(OC(F)(F)F)cc1 (racemic) [Example 298, rac-(3S*,5S*)-3-chloro-5-(2-methoxyphenyl)-1-(4-(trifluoromethoxy)benzyl)pyrrolidin-2-one] | 1630 | 901 | – |
| CCOc1cccc(F)c1C1CC(C)C(=O)N1Cc1csc(-c2ccc(C)cc2)n1 (centres unmarked) [Example 383, 5-(2-ethoxy-6-fluorophenyl)-3-methyl-1-((2-(p-tolyl)thiazol-4-yl)methyl)pyrrolidin-2-one] | 234 | 9 | – |
| COc1cccc(OC)c1C1CCCC(=O)N1Cc1cnn(-c2ccccc2)c1 (centres unmarked) [Example 26, 6-(2,6-dimethoxyphenyl)-1-((1-phenyl-1H-pyrazol-4-yl)methyl)piperidin-2-one] | 167 | 115 | – |
| COc1ccnc(OC)c1C1CC(C)C(=O)N1Cc1cccc(-c2nc(Cl)cs2)c1 (centres unmarked) [Example 355, 1-(3-(4-chlorothiazol-2-yl)benzyl)-5-(2,4-dimethoxypyridin-3-yl)-3-methylpyrrolidin-2-one] | 34 | 103 | – |
| COc1cccc(F)c1C1CC(C)C(=O)N1Cc1ccnc(-c2nc(C)cs2)c1 (centres unmarked) [Example 366, 5-(2-fluoro-6-methoxyphenyl)-3-methyl-1-((2-(4-methylthiazol-2-yl)pyridin-4-yl)methyl)pyrrolidin-2-one] | 158 | 8 | – |
| COc1cccc(OC)c1C1CCCC(=O)N1Cc1cc(-c2ccccc2)ccn1 (centres unmarked) [Example 22, 6-(2,6-dimethoxyphenyl)-1-((4-phenylpyridin-2-yl)methyl)piperidin-2-one] | 166 | 131 | – |
